Test results as given in US6989384B2, “Antipicornaviral compounds and compositions, their pharmaceutical uses, and materials for their synthesis” (Agouron Pharmaceuticals, Inc., priority 2000, dated 2006).

The compounds below were run against T1, rhinovirus 3C protease from HRV serotype-14 (Human rhinovirus 14, UniProt P03303) (assay: Inhibition of rhinovirus 3C protease activity (FRET assay), HRV-14). Conditions: HRV-14 3C protease; progress curves, enzyme start.
T1 construct: Recombinant rhinovirus 3C proteases; made in house
Assay type: biochemical
Description: Stock solutions (50 mM, in DMSO) of various compounds were prepared; dilutions were in the same solvent. Recombinant rhinovirus 3C proteases (see Birch et al., “Purification of recombinant human rhinovirus 14 3C protease expressed in Escherichia coli,” Protein Expr. Pur. 1995, 6(5), 609–618) from serotypes 14, 16, and 2 were prepared by the following standard chromatographic procedures: (1) ion exchange using Q Sepharose Fast Flow from Pharmacia; (2) affinity chromatography using Affi-Gel Blue from Biorad; and (3) sizing using Sephadex G-100 from Pharmacia. Each assay sample contained 2% DMSO, 50 mM tris pH 7.6, 1 mM EDTA, a test compound at the indicated concentration, approximately 1 μM substrate, and 50–100 nM protease. The kobs/I values were obtained from reactions initiated by addition of enzyme rather than substrate. RVP activity was measured in the fluorescence resonance energy transfer assay. The substrate was (N-terminal) DABCYL-(Gly-Arg-Ala-Val-Phe-Gln-Gly-Pro-Val-Gly)-EDANS. In the uncleaved peptide, the EDANS fluorescence was quenched by the proximal DABCYL group. When the peptide was cleaved, the quenching was relieved, and activity was measured as an increase in fluorescence signal. In the Table, unless otherwise indicated, all data are for rhinovirus 3C protease from HRV serotype-14 (produced from the infectious cDNA clone constructed by Dr. Robert Rueckert, Institute for Molecular Virology, University of Wisconsin, Madison, Wis.). The data in the column designated kobs/[I] were measured from progress curves in enzyme start experiments.

T1 sequence (P03303 1538-1719): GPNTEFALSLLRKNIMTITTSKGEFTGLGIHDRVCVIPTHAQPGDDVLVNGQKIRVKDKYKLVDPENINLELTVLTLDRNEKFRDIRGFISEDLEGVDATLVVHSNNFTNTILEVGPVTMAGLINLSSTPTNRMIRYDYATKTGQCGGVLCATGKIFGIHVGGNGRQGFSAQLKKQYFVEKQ

Protease Inhibition kobs/I	SMILES
673 M⁻¹ s⁻¹	CCOC(=O)/C=C/[C@H](C[C@@H]1CCNC1=O)NC(=O)c1cc2ccccc2cc1NC(C)=O [Compound 22, 4S-[(3-acetylamino-naphthalene-2-carbonyl)-amino]-5-(2-oxo-pyrrolidin-3S-yl)-pent-2-enoic acid ethyl ester]

Same assay, conditions: HRV-14 3C protease; progress curves, enzyme start; read-out: Protease Inhibition kobs/I

kinact/KI	SMILES
6850 M⁻¹ s⁻¹	CCOC(=O)/C=C/[C@H](C[C@@H]1CCNC1=O)NC(=O)/C=C/c1cc(Br)ccc1Br [Compound 64, 4S-[3-(2,5-dibromo-phenyl)-acryloylamino]-5-(2-oxo-pyrrolidin-3S-yl)-pent-2-enoic acid ethyl ester]
1270 M⁻¹ s⁻¹	CCOC(=O)/C=C/[C@H](C[C@@H]1CCNC1=O)NC(=O)c1cc2cc(Cl)ccc2[nH]1 [Compound 40, 4S-[(5-Chloro-1H-indole-2-carbonyl)-amino]-5-(2-oxo-pyrrolidin-3S-yl)-pent-2-enoic acid ethyl ester]
664 M⁻¹ s⁻¹	CCOC(=O)/C=C/[C@H](C[C@@H]1CCNC1=O)NC(=O)/C=C/c1ccc(OC)cc1 [Compound 16, 4S-[3-(methoxy-phenyl)-acryloylamino]-5-(2-oxo-pyrrolidin-3S-yl)-pent-2-enoic acid ethyl ester]
570 M⁻¹ s⁻¹	CCOC(=O)/C=C/[C@H](C[C@@H]1CCNC1=O)NC(=O)c1ccc2cc(O)ccc2c1 [Compound 65, 4S-[(6-hydroxy-naphthalene-2-carbonyl)-amino]-5-(2-oxo-pyrrolidin-3S-yl)-pent-2-enoic acid ethyl ester]
169 M⁻¹ s⁻¹	CCOC(=O)/C=C/[C@H](C[C@@H]1CCNC1=O)NC(=O)C1CSC(c2ccccc2)N1C(C)=O (stereo partly drawn) [Compound 13, 4S-[(3-acetyl-2-phenyl-thiazolidine-4-carbonyl)-amino]-5-(2-oxo-pyrrolidin-3S-yl)-pent-2-enoic acid ethyl ester]
1830 M⁻¹ s⁻¹	CCOC(=O)/C=C/[C@H](C[C@@H]1CCNC1=O)NC(=O)c1cc2cc(OC)c(OCc3ccccc3)cc2[nH]1 [Compound 46, 4S-[(6-Benzyloxy-5-methoxy-1H-indole-2-carbonyl)-amino]-5-(2-oxo-pyrrolidin-3S-yl)-pent-2-enoic acid ethyl ester]
77 M⁻¹ s⁻¹	CCOC(=O)/C=C/[C@H](C[C@@H]1CCNC1=O)NC(=O)COc1cccc(OC)c1 [Compound 60, 4S-[2-(3-methoxy-phenoxy)-acetylamino]-5-(2-oxo-pyrrolidin-3S-yl)-pent-2-enoic acid ethyl ester]
36 M⁻¹ s⁻¹	CCOC(=O)/C=C/[C@H](C[C@@H]1CCNC1=O)NC(=O)c1nc2ccccc2nc1O [Compound 7, 4S-[(3-hydroxyquinoxaline-2-carbonyl)-amino]-5-(2-oxopyrrolidin-3S-yl)-pent-2-enoic acid ethyl ester]
272 M⁻¹ s⁻¹	CCOC(=O)/C=C/[C@H](C[C@@H]1CCNC1=O)NC(=O)c1cc2cccc([N+](=O)[O-])c2[nH]1 [Compound 42, 4S-[(7-Nitro-1H-indole-2-carbonyl)-amino]-5-(2-oxo-pyrrolidin-3S-yl)-pent-2-enoic acid ethyl ester]
219 M⁻¹ s⁻¹	CCOC(=O)/C=C/[C@H](C[C@@H]1CCNC1=O)NC(=O)c1cc2cc(Br)ccc2o1 [Compound 14, 4S-[(5-bromo-benzofuran-2-carbonyl)-amino]-5-(2-oxo-pyrrolidin-3S-yl)-pent-2-enoic acid ethyl ester]
225 M⁻¹ s⁻¹	CCOC(=O)/C=C/[C@H](C[C@@H]1CCNC1=O)NC(=O)/C=C/C(=O)Nc1c(C)cc(C)cc1C [Compound 50, 5-(2-Oxo-pyrrolidin-3S-yl)-4S-[3-(2,4,6-trimethylphenylcarbamoyl)-acryloylamino]-pent-2-enoic acid ethyl ester]
79 M⁻¹ s⁻¹	CCOC(=O)/C=C/[C@H](C[C@@H]1CCNC1=O)NC(=O)c1cncc(Br)c1 [Compound 6, 4S-[(5-bromo-pyridine-3-carbonyl)-amino]-5-(2-oxo-pyrrolidin-3S-yl)-pent-2-enoic acid ethyl ester]
315 M⁻¹ s⁻¹	CCOC(=O)/C=C/[C@H](C[C@@H]1CCNC1=O)NC(=O)/C=C/c1cccc(O)c1 [Compound 17, 4S-[3-(3-hydroxy-phenyl)-acryloylamino]-5-(2-oxo-pyrrolidin-3S-yl)-pent-2-enoic acid ethyl ester]
262 M⁻¹ s⁻¹	CCOC(=O)/C=C/[C@H](C[C@@H]1CCNC1=O)NC(=O)c1ccc2cc(OC)c(OC)cc2c1 [Compound 18, 4S-[(6,7-dimethoxy-naphthalene-2-carbonyl)-amino]-5-(2-oxo-pyrrolidin-3S-yl)-pent-2-enoic acid ethyl ester]
258 M⁻¹ s⁻¹	CCOC(=O)/C=C/[C@H](C[C@@H]1CCNC1=O)NC(=O)c1ccc(C(=O)OC)cc1 [Compound 4, N-[3-ethoxycarbonyl-1S-(2-oxo-pyrrolidin-3R-ylmethyl)-ally]-terephthalamic acid methyl ester]
7 M⁻¹ s⁻¹	CCOC(=O)/C=C/[C@H](C[C@@H]1CCNC1=O)NC(=O)Cc1cccc(Cl)c1 [Compound 63, 4S-[2-(3-chloro-phenyl)-acetylamino]-5-(2-oxo-pyrrolidin-3S-yl)-pent-2-enoic acid ethyl ester]
750 M⁻¹ s⁻¹	CCOC(=O)/C=C/[C@H](C[C@@H]1CCNC1=O)NC(=O)/C=C/c1ccc(Cl)cc1 [Compound 11, 4S-[3-(4-chloro-phenyl)-acryloylamino]-5-(2-oxo-pyrrolidin-3S-yl)-pent-2-enoic acid ethyl ester]
55 M⁻¹ s⁻¹	CCOC(=O)/C=C/[C@H](C[C@@H]1CCNC1=O)NC(=O)c1nc2ccccc2[nH]1 [Compound 10, 4-[(1H-benzoimidazole-2-carbonyl)-amino]-5-(2-oxo-pyrrolidin-3S-yl)-pent-2-enoic acid ethyl ester]
173 M⁻¹ s⁻¹	CCOC(=O)/C=C/[C@H](C[C@@H]1CCNC1=O)NC(=O)/C=C/c1ccc(OC)c(OC)c1 [Compound 5, 4S-[3-(3,4-dimethoxy-phenyl)-acryloylamino]-5-(2-oxo-pyrrolidin-3S-yl)-pent-2-enoic acid ethyl ester]
615 M⁻¹ s⁻¹	CCOC(=O)/C=C/[C@H](C[C@@H]1CCNC1=O)NC(=O)c1cc2cc(F)ccc2[nH]1 [Compound 39, 4S-[(5-Fluoro-1H-indole-2-carbonyl)-amino]-5-(2-oxo-pyrrolidin-3S-yl)-pent-2-enoic acid ethyl ester]
283 M⁻¹ s⁻¹	CCOC(=O)/C=C/[C@H](C[C@@H]1CCNC1=O)NC(=O)c1cc2ccccc2[nH]1 [Compound 47, 4S-[(1H-Indole-2-carbonyl)-amino]-5-(2-oxo-pyrrolidin-3S-yl)-pent-2-enoic acid ethyl ester]
200 M⁻¹ s⁻¹	CCOC(=O)/C=C/[C@H](C[C@@H]1CCNC1=O)NC(=O)Nc1ccccc1Oc1ccccc1 [Compound 55, 5-(2-oxo-pyrrolidin-3S-yl)-4S-[3-(2-phenoxy-phenyl)-ureido]-pent-2-enoic acid ethyl ester]
103 M⁻¹ s⁻¹	CCOC(=O)/C=C/[C@H](C[C@@H]1CCNC1=O)NC(=O)COc1cccc(Cl)c1 [Compound 61, 4S-[2-(3-chloro-phenoxy)-acetylamino]-5-(2-oxo-pyrrolidin-35-yl)-pent-2-enoic acid ethyl ester]
581 M⁻¹ s⁻¹	CCOC(=O)/C=C/[C@H](C[C@@H]1CCNC1=O)NC(=O)c1cc2ccccc2cc1NC(C)=O [Compound 22, 4S-[(3-acetylamino-naphthalene-2-carbonyl)-amino]-5-(2-oxo-pyrrolidin-3S-yl)-pent-2-enoic acid ethyl ester]
142 M⁻¹ s⁻¹	CCOC(=O)/C=C/[C@H](C[C@@H]1CCNC1=O)NC(=O)c1cc2ccccc2cc1N [Compound 69, 4S-[(3-amino-naphthalene-2-carbonyl)-amino]-5-(2-oxo-pyrrolidin-3S-yl)-pent-2-enoic acid ethyl ester]
